In ChEMBL document CHEMBL1909046, “DrugMatrix in vitro pharmacology data” one finds IC50 and Ki data, which are given here for 15 compounds.

Data set [1] deals with T1, Type-2 angiotensin II receptor (Homo sapiens, UniProt P50052).
T1 sequence (P50052 whole entry): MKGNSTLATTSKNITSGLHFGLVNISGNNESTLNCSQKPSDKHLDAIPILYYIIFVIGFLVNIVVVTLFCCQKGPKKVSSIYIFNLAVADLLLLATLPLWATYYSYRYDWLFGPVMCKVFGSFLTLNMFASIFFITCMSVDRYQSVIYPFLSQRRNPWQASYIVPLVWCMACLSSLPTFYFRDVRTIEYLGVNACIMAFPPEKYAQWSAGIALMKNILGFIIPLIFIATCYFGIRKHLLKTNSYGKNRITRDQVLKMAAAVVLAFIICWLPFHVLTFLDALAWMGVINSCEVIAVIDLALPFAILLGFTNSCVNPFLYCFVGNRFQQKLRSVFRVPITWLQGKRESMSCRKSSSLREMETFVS
The data set is classed as cell-based. The conditions noted are these: cho-k1.

Data set [2] can be described thus: DRUGMATRIX: Serotonin (5-Hydroxytryptamine) 5-HT3 radioligand binding (ligand: [3H] GR-65630). The class given is cell membranes, Membrane. Particulars: hek293; Not Active = under 50% inhibition at 10 µM.
For data set [3], the target named is Sigma non-opioid intracellular receptor 1 (Homo sapiens, UniProt Q99720). Nature of the data set: DRUGMATRIX: Sigma1 radioligand binding (ligand: [3H] Haloperidol). The data set is classed as cell membranes, Jurkat, Membrane. The conditions noted are these: Not Active = under 50% inhibition at 10 µM.
Sigma non-opioid intracellular receptor 1, sequence (Q99720 whole entry): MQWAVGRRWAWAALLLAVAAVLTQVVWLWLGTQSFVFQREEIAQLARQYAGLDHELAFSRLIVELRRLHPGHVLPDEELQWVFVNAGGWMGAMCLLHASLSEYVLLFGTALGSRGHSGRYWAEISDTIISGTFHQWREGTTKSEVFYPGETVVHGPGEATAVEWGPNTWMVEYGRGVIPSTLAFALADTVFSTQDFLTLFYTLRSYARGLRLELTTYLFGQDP
In data set [4] the target is Melanocortin receptor 4 (Homo sapiens, UniProt P32245). The class given is cell membranes, HEK293, Membrane. Particulars: hek293. Further: in other assays of this panel Not Active means under 50% inhibition at 10 µM.
Melanocortin receptor 4, sequence (P32245 whole entry): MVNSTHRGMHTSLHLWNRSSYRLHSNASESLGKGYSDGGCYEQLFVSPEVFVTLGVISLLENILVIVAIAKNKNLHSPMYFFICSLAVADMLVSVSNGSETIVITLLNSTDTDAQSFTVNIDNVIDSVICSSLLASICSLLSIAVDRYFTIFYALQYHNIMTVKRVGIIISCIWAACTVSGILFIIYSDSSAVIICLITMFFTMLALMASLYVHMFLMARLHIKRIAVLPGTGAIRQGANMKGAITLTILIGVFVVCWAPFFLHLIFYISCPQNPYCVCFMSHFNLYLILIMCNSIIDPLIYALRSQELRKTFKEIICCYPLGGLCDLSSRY
Data set [5] concerns the target Protein kinase C alpha type (Homo sapiens, UniProt P17252). The class given is cell-based. Particulars: sf9.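 Further: inhibition of PKCalpha kinase activity measured in an enzyme assay with histone as the phosphorylation substrate; in other assays of this panel Not Active means under 50% inhibition at 10 µM.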
For data set [6], the target named is Tyrosine-protein kinase Lck (Homo sapiens, UniProt P06239). Put plainly: DRUGMATRIX: Protein Tyrosine Kinase, LCK enzyme inhibition (substrate: Poly(Glu:Tyr)). The data set is classed as cell-based, Insect cells. Particulars: insect cells, Not Active = under 50% inhibition at 10 µM.
Tyrosine-protein kinase Lck, sequence (P06239 whole entry): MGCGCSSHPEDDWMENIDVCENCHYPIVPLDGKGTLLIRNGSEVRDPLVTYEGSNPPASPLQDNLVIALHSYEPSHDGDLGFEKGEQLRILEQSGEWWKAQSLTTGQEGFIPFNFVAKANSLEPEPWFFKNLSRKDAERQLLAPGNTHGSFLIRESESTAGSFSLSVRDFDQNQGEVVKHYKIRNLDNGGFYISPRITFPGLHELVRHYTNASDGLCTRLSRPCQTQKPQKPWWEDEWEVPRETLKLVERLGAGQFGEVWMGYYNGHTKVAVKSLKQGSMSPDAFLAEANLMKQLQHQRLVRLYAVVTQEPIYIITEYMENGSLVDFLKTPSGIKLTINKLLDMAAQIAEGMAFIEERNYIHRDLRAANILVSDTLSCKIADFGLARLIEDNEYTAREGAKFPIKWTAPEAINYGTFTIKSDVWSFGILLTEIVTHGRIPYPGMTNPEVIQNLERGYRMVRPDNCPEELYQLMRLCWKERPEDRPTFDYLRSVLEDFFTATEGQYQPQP
Data set [7] concerns the target T2, Cytochrome P450 1A2 (Homo sapiens, UniProt P05177). Further: in other assays of this panel Not Active means under 50% inhibition at 10 µM.
T2 sequence (P05177 whole entry): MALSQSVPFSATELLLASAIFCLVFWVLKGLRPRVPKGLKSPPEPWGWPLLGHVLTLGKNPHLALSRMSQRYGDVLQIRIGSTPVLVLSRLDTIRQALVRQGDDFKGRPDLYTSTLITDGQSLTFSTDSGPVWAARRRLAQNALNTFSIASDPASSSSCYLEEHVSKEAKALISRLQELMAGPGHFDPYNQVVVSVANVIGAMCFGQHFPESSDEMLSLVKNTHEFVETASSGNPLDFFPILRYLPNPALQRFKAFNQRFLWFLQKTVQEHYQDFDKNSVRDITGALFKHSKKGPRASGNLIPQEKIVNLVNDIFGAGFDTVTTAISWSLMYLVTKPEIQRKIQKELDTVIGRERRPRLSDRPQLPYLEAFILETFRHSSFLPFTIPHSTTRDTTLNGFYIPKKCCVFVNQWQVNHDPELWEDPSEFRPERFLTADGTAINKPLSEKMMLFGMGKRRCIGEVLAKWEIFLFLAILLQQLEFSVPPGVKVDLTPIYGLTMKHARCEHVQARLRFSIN
The conditions noted are these: bti-tn-5b1-4.

In general, IC50 refers to the concentration needed to halve the response being measured. As usually defined, the Ki is the equilibrium dissociation constant of an inhibitor or competing ligand from its target. As for `COC(=O)Nc1nc2ccc([S+]([O-])c3ccccc3)cc2[nH]1` (stereo unspecified) [OXFENDAZOLE], the concentration for half-maximal inhibition (IC50) entry in data set [1], in data set [2], in data set [3] (jurkat), in data set [4], in data set [5] and in data set [6] was “Not Active” throughout. The IC50 result in data set [7] is “Not Active”. For the same compound, the inhibition constant Ki result in data set [2] and in data set [7] was “Not Active” throughout.

In the case of `CC(=O)O[C@H]1C(=O)[C@@]2(C)[C@H]([C@H](OC(=O)c3ccccc3)[C@]3(O)C[C@H](OC(=O)[C@H](O)[C@@H](NC(=O)c4ccccc4)c4ccccc4)C(C)=C1C3(C)C)[C@]1(OC(C)=O)CO[C@@H]1C[C@@H]2O` [PACLITAXEL], the IC50 entry in data set [1], in data set [2], in data set [3] (jurkat), in data set [4], in data set [5] and in data set [6] was “Not Active” each time. Further, the IC50 entry in data set [7] is given as “Not Active”. For the same compound, the Ki entry in data set [2] and in data set [7] was “Not Active” throughout.

Consider `C[n+]1ccc(-c2cc[n+](C)cc2)cc1.[Cl-].[Cl-]` [PARAQUAT DICHLORIDE], for which the IC50 result in data set [1], in data set [2], in data set [3] (jurkat), in data set [4], in data set [5] and in data set [6] was “Not Active” in each case. Moreover, in data set [7], the IC50 result was “Not Active”. Moreover, the Ki entry in data set [2] and in data set [7] was “Not Active” throughout.

With `C[n+]1ccccc1/C=N/O.[Cl-]` [PRALIDOXIME CHLORIDE], the IC50 entry in data set [1], in data set [2], in data set [3] (jurkat), in data set [4], in data set [5] and in data set [6] was “Not Active” each time. The IC50 result in data set [7] is recorded as “Not Active”. Besides, the Ki result in data set [2] and in data set [7] was “Not Active” throughout.

Consider `C[C@]12C=CC(=O)C=C1CC[C@@H]1[C@@H]2[C@@H](O)C[C@@]2(C)[C@H]1CC[C@]2(O)C(=O)CO` [PREDNISOLONE], for which the 50% inhibitory concentration (IC50) entry in data set [1], in data set [2], in data set [3] (jurkat), in data set [4], in data set [5] and in data set [6] was “Not Active” in each case. In addition, the IC50 entry in data set [7] is reported as “Not Active”. In addition, the Ki entry in data set [2] and in data set [7] was “Not Active” throughout.

For the compound `CC(=O)[C@H]1[C@H](C#N)C[C@H]2[C@@H]3CC=C4C[C@@H](O)CC[C@]4(C)[C@H]3CC[C@@]21C` [PREGNENOLONE CARBONITRILE], the IC50 entry was “Not Active” in data set [1]; “Not Active” in data set [2]; 21.3 µM in data set [3] (read-out: IC50); “Not Active” in data set [4]; “Not Active” in data set [5]; “Not Active” in data set [6]. Moreover, in data set [7], the IC50 entry is given as “Not Active”. For the same compound, the Ki result is “Not Active” in data set [2], 8.95 µM in data set [3] (read-out: Ki) and “Not Active” in data set [7].

As for `CCCN(CCC)S(=O)(=O)c1ccc(C(=O)O)cc1` [PROBENECID], the IC50 result in data set [1], in data set [2], in data set [3] (jurkat), in data set [4], in data set [5] and in data set [6] was “Not Active” throughout. Also, the IC50 result in data set [7] is “Not Active”. Further, the Ki entry in data set [2] and in data set [7] was “Not Active” in each case.

For `CCCOc1ccc(C(=O)OCCN(CC)CC)cc1N` [PROPARACAINE], the IC50 result was “Not Active” in data set [1]; “Not Active” in data set [2]; 0.238 µM in data set [3] (read-out: IC50); “Not Active” in data set [4]; “Not Active” in data set [5]; “Not Active” in data set [6]. Besides, the IC50 entry in data set [7] was “Not Active”. For the same compound, the results for the Ki result in data set [2], in data set [3] (read-out: Ki) and in data set [7] were “Not Active”, 0.1 µM and “Not Active”, respectively.

For the compound `C[C@@H]1O[C@@H](O[C@@H]2C=C3CC[C@@H]4[C@H](CC[C@]5(C)[C@@H](c6ccc(=O)oc6)CC[C@]45O)[C@@]3(C)CC2)[C@H](O)[C@H](O)[C@H]1O` [PROSCILLARIDIN], the IC50 result in data set [1], in data set [2], in data set [3] (jurkat), in data set [4], in data set [5] and in data set [6] was “Not Active” throughout. In addition, the IC50 result in data set [7] is listed as “Not Active”. Besides, the Ki result in data set [2] and in data set [7] was “Not Active” in each case.

For the compound `Oc1cccc(O)c1O` [PYROGALLOL], the IC50 result in data set [1], in data set [2], in data set [3] (jurkat), in data set [4], in data set [5] and in data set [6] was “Not Active” each time. The IC50 entry in data set [7] is reported as “Not Active”. In addition, the Ki result in data set [2] and in data set [7] was “Not Active” each time.

Turning to AURANOFIN, the half-maximal inhibitory concentration (IC50) entry in data set [1], in data set [2], in data set [3] (jurkat), in data set [4], in data set [5] and in data set [6] was “Not Active” throughout. Also, the IC50 result in data set [7] is given as “Not Active”. Moreover, the Ki result in data set [1], in data set [2], in data set [3] (jurkat), in data set [4], in data set [5] and in data set [6] was “Not Active” in each case. In data set [7], the inhibition constant Ki result is listed as “Not Active”.

On to GADOPENTETATE DIMEGLUMINE, for which the IC50 result in data set [1], in data set [2], in data set [3] (jurkat), in data set [4], in data set [5] and in data set [6] was “Not Active” each time. In addition, the IC50 entry in data set [7] is “Not Active”. Moreover, the inhibition constant Ki entry in data set [1], in data set [2], in data set [3] (jurkat), in data set [4], in data set [5] and in data set [6] was “Not Active” throughout. The Ki entry in data set [7] is “Not Active”.

For GENTAMICIN, the IC50 result in data set [1], in data set [2], in data set [3] (jurkat), in data set [4], in data set [5] and in data set [6] was “Not Active” throughout. Moreover, in data set [7], the 50% inhibitory concentration (IC50) result was “Not Active”. Also, the Ki entry in data set [1], in data set [2], in data set [3] (jurkat), in data set [4], in data set [5] and in data set [6] was “Not Active” in each case. Besides, in data set [7], the Ki entry is given as “Not Active”.

For the compound GRAMICIDIN, the IC50 result in data set [1] is “Not Active”; in data set [2], “Not Active”; in data set [3] (jurkat), “Not Active”; in data set [4] (read-out: IC50) it was 3.31 µM; in data set [5], “Not Active”; in data set [6] (read-out: IC50), 1.09 µM. Moreover, the IC50 entry in data set [7] was “Not Active”. Also, the Ki result in data set [1] is “Not Active”; in data set [2] it was “Not Active”; in data set [3] (jurkat), “Not Active”; in data set [4] (read-out: Ki) it was 3.19 µM; in data set [5], “Not Active”; in data set [7], “Not Active”.

Consider NYSTATIN, for which the IC50 entry in data set [1], in data set [2], in data set [3] (jurkat), in data set [4], in data set [5] and in data set [6] was “Not Active” in each case. The IC50 result in data set [7] was “Not Active”. Also, the Ki result in data set [1], in data set [2], in data set [3] (jurkat), in data set [4], in data set [5] and in data set [6] was “Not Active” throughout. The Ki entry in data set [7] is on record as “Not Active”.
